{"source": "patent US20240002425A1", "about": "“NOVEL AMINOALKYL GLUCOSAMINIDE 4-PHOSPHATE DERIVATIVE” (DAIICHI SANKYO COMPANY, LIMITED, priority 2020, published 2024)", "tested_on": "binding between RBD and hACE2", "conditions": "in vivo", "data": [{"smiles": "CCCCCCCCCCC[C@H](CC(=O)N[C@@H](CO[C@@H]1O[C@H](CO[C@]2(C(=O)O)C[C@@H](O)[C@@H](O)[C@@H]([C@H](O)CO)O2)[C@@H](OP(=O)(O)O)[C@H](OC(=O)C[C@@H](CCCCCCCCCCC)OC(=O)CCCCCCCCC)[C@H]1NC(=O)C[C@@H](CCCCCCCCCCC)OC(=O)CCCCCCCCC)CC(=O)O)OC(=O)CCCCCCCCC", "note": "[Example 2(2e), Ammonium (3R)-3-{[(3R)-3-(decanoyloxy)tetradecanoyl]amino}-4-({3-O-[(3R)-3-(decanoyloxy)tetradecanoyl]-2-{[(3R)-3-(decanoyloxy)tetradecanoyl]amino}-2-deoxy-6-O-(3-deoxy-α-D-manno-oct-2-ulopyranonosyl)-4-O-phosphono-β-D-glucopyranosyl}oxy)butanoate]", "values": [{"measurement": "inhibition of binding between RBD and hACE2 by nasal wash", "value": "inhibited the binding between RBD and hACE2"}]}]}
